Reference: patent US20060148804A1, “Pde4 inhibitors for the treatment of neoplasms of lymphoid cells” (priority 2003, published 2006)

How the values were obtained:
[1] = test system: NB4 blasts; assay: ATRA induced granulocytic maturation and growth inhibition of NB4 blasts; format: cell-based; conditions: for PICLAMILAST dependent enhancement of the ATRA-dependent induction of NBT-R: added to PICLAMILAST and ATRA
Description: (§1) In NB4 cells, PICLAMILAST accelerates the process of morphological granulocytic maturation and enhances the ATRA-dependent induction of specific differentiation markers such as NBT-reductase (NBTR) as well as CD11b. PICLAMILAST not only enhances, but also accelerates the process of granulocytic maturation set in motion by ATRA in acute myelogenous leukemia cells, reducing the time necessary to expose cells to ATRA to obtain maximal differentiation. […] PICLAMILAST exerts differential effects on a number of transcriptional factors involved in the process of leukemic cell maturation triggered by ATRA. […] The PICLAMILAST dependent enhancement of the ATRA-dependent induction of NBT-R is suppressed by the cAMP antagonist, Rp-8Br-cAMP, and the specific PKA inhibitor H-89. […] This phenomenon is more evident when cells are treated with combinations of ATRA and the PDE4 inhibitor. […] This altogether could represent a clinically relevant finding as it may represent a useful strategy to increase the therapeutic index of ATRA by decreasing its local and systemic toxicity.

[2] = test system: chronic lymphocytic leukemia (CLL) B-lymphocytes; conditions: in vitro; cited from earlier work
[3] = test system: cEBPalpha; assay: Amounts of cEBPalpha in leukemic cell maturation triggered by ATRA; format: cell-based; conditions: in combination with the retinoid
Description: as §1

[4] = test system: STAT1; assay: Amounts and tyrosine phosphorylation of STAT1; format: cell-based; conditions: in combination with the retinoid
Description: as §1

[5] = test system: NB4 cells; assay: Intracellular cAMP and cAMP-dependent protein kinase (PKA) amounts in NB4 cells; format: cell-based; conditions: versus basal conditions
Description: as §1

[6] = test system: HL-60 blasts; assay: ATRA induced granulocytic maturation and growth inhibition of HL-60 blasts; format: cell-based; conditions: together with ATRA
[7] = test system: retinoic acid receptor, RARalpha; assay: Ligand-dependent transcriptional activity and phosphorylation of RARalpha; format: cell-based
Description: as §1

[8] = test system: U937 blasts; assay: ATRA induced granulocytic maturation and growth inhibition of U937 blasts; format: cell-based; conditions: together with ATRA
[9] = test system: cEBPepsilon; assay: Upregulation of cEBPepsilon; format: cell-based; conditions: in combination with the retinoid
Description: as §1

[10] = test system: CREBP transcriptional factor; assay: Phosphorylation state of CREBP in NB4 cells; format: cell-based
Description: as §1

[11] = test system: NB4 cells; assay: Gene expression in NB4 / myeloid cells; format: cell-based
Description: as §1

Nc1ncnc2c1nc(Br)n2C1OC2COP(O)(=S)OC2C1O (stereo not drawn) [Rp-8Br-cAMP]
PICLAMILAST dependent enhancement of the ATRA-dependent induction of NBT-R [1]: suppressed

Cn1c(=O)c2[nH]cnc2n(C)c1=O [Theophylline]
apoptosis in CLL B-lymphocytes [2]: induce apoptosis

COc1ccc(C(=O)Nc2c(Cl)cncc2Cl)cc1OC1CCCC1 [PICLAMILAST, N-(3,5-dichloropyrid-4-yl)-3-cyclopentyloxy-4-methoxybenzamide]
amounts of cEBPalpha [3]: causes an increase | amounts and activation state (tyrosine phosphorylation) of STAT1 [4]: causes an increase | amounts of cAMP-dependent protein kinase (PKA) [5]: significant increase | amounts of intracellular cAMP [5]: significant increase | growth inhibitory and cyto-differentiating activities of all trans retinoic acid (ATRA) [6]: potentiates | PKA-dependent phosphorylation of RARalpha [7]: activated | ligand-dependent transcriptional activity of RARalpha ([7]; in combination with the retinoid): enhances | growth inhibitory and cyto-differentiating activities of all trans retinoic acid (ATRA) ([1]; NB4 blasts, together with ATRA): potentiates | process of morphological granulocytic maturation ([1]; NB4 cells): accelerates | ATRA-dependent induction of CD11b ([1]; NB4 cells, with ATRA): enhances | ATRA-dependent induction of NBT-reductase (NBTR) ([1]; NB4 cells, with ATRA): enhances | time necessary to expose cells to ATRA to obtain maximal differentiation ([1]; acute myelogenous leukemia cells): reducing | growth inhibitory effect of the retinoid ([1]; acute myelogenous leukemia cells, with ATRA): increases the growth inhibitory effect of the retinoid in an additive fashion | growth inhibitory and cyto-differentiating activities of all trans retinoic acid (ATRA) [8]: potentiates | upregulation of cEBPepsilon [9]: no significant effect | phosphorylation state of the cAMP dependent CREBP transcriptional factor [10]: down-regulatory action | expression of cAMP- and CREBP-dependent genes, such as vinculin ([11]; NB4 cells): does not modulate | expression of numerous ATRA-dependent genes, including cathepsin D and syaloadhesin ([11]; with ATRA): enhancing action

O=S(=O)(NCCNC/C=C/c1ccc(Br)cc1)c1cccc2cnccc12 [H-89]
PICLAMILAST dependent enhancement of the ATRA-dependent induction of NBT-R [1]: suppressed | ATRA-dependent genes whose expression is super-induced by the PDE4 inhibitor ([11]; added to PICLAMILAST and ATRA): does not have the same effect on all

CC1=C(/C=C/C(C)=C/C=C/C(C)=C/C(=O)O)C(C)(C)CCC1 [ATRA, all trans retinoic acid]
amounts of cAMP-dependent protein kinase (PKA) [5]: Neither basal nor PICLAMILAST-induced levels of cAMP and PKA are modulated | amounts of intracellular cAMP [5]: Neither basal nor PICLAMILAST-induced levels of cAMP and PKA are modulated
